Target: NP-1 (Homo sapiens, UniProt O14786)
Assay: Biotinylated-VEGF-A165 (bt-VEGF-A165) binding to NP-1
Details: for inhibition at 30 µM: 30 μM compound, read-out: Screen (% inhibition at 30 μM); for inhibition at 3 µM: 3 μM compound, read-out: Screen (% inhibition at 3 μM)
Description: Human prostate carcinoma DU145 cells were cultured in growth medium (RPMI 1640 containing 10% FBS and L-glutamine). DU145 cells were seeded at the density of 2×10^4 cells per well (96-well plates) in 0.1 ml growth medium and transfected with adenovirus vectors containing the full-length open-reading frame of human NP-1. The Ad.NP-1-transfected cells grew for 2 days prior to a binding assay.
Confluent Ad.NP-1-transfected cells in 96-well plates were washed twice with phosphate-buffered saline (PBS). The various concentrations of compounds diluted in binding medium (Dulbecco's modified Eagle's medium, 25 mM HEPES pH 7.3 containing 0.1% BSA) were added, followed by addition of 2 nM of bt-VEGF-A165. After 2 h of incubation at room temperature, the medium was aspirated and washed three times with PBS. The bound bt-VEGF-A165 to NP-1 was detected by streptavidin-horseradish peroxidase conjugates and the enzyme substrate, and measured using a Tecan Genios plate reader at A450 nm with a reference wavelength at A595 nm. Non-specific binding was determined in the presence of 100-fold excess unlabelled VEGF-A165.
The 96-well plates were pre-coated with NP1 protein at 3 μg/ml overnight at 4° C. On the following day, the plates were treated with blocking buffer (PBS containing 1% BSA) and washed three times with wash buffer (PBS containing 0.1% Tween-20). The various concentrations of compounds diluted in PBS containing 1% DMSO were added, followed by addition of 0.25 nM of bt-VEGF-A165. After 2 h of incubation at room temperature, the plates were washed three times with wash buffer. The bound bt-VEGF-A165 to NP-1 was detected by streptavidin-horseradish peroxidase conjugates and the enzyme substrate, and measured using a Tecan Genios plate reader at A450 nm with a reference wavelength at A595 nm. Nonspecific binding was determined in the absence of NP-1 coated wells of the plates.

NP-1, sequence (O14786 22-923): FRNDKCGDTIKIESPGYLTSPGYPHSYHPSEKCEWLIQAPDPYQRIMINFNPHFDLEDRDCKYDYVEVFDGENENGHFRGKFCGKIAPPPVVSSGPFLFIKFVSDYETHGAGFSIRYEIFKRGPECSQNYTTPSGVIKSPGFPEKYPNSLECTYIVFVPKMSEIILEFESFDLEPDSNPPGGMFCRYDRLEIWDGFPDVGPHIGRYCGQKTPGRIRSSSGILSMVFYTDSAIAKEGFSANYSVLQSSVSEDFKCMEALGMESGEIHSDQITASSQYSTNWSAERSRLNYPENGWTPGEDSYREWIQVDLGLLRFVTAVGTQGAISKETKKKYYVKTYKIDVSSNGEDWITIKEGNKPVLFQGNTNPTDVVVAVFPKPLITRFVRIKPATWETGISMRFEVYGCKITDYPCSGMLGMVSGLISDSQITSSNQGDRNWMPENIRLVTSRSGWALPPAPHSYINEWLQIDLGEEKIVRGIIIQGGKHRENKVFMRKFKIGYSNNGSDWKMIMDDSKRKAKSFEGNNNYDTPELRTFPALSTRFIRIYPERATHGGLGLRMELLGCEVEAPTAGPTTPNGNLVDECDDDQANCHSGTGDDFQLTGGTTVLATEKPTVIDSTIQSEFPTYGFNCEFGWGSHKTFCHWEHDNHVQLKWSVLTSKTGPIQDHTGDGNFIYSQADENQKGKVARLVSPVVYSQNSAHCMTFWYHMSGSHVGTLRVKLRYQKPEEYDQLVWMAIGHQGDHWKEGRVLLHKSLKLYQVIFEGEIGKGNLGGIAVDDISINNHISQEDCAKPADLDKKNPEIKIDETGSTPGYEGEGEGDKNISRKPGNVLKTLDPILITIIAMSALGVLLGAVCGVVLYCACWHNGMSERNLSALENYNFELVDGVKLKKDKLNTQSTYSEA

Structure (SMILES) | IC50 [nM] | inhibition at 30 µM [%] | inhibition at 3 µM [%]
N=C(N)NCCC[C@H](NC(=O)c1sccc1NS(=O)(=O)c1cc(-c2ccccc2CN2CCN(Cc3ccncc3)CC2)cc2c1OCC2)C(=O)O [Compound 8, (S)-5-Guanidino-2-[(3-{5-[2-(4-pyridin-4-ylmethyl-piperazin-1-ylmethyl)-phenyl]-2,3-dihydro-benzofuran-7-sulfonylamino}-thiophene-2-carbonyl)-amino]-pentanoic acid] | 1800 | 90 | 
N=C(N)NCCC[C@H](NC(=O)c1sccc1NS(=O)(=O)c1cc(-c2cccc(CNCc3ccc(O)nc3)c2)cc2c1OCC2)C(=O)O [Compound 43, (S)-5-Guanidino-2-({3-[5-(3-{[(6-hydroxy-pyridin-3-ylmethyl)-amino]-methyl}-phenyl)-2,3-dihydro-benzofuran-7-sulfonylamino]-thiophene-2-carbonyl}-amino)-pentanoic acid] |  |  | 82
N=C(N)NCCC[C@H](NC(=O)c1sccc1NS(=O)(=O)c1cc(-c2ccccc2CN2CCC(N)CC2)cc2c1OCC2)C(=O)O [Compound 21, (S)-2-[(3-{5-[2-(4-Amino-piperidin-1-ylmethyl)-phenyl]-2,3-dihydro-benzofuran-7-sulfonylamino}-thiophene-2-carbonyl)-amino]-5-guanidino-pentanoic acid] |  |  | 73
N=C(N)NCCC[C@H](NC(=O)c1sccc1NS(=O)(=O)c1cc(-c2cccc(CN3CCN(Cc4ccncc4)CC3)c2)cc2c1OCC2)C(=O)O [Compound 30, (S)-5-Guanidino-2-[(3-{5-[3-(4-pyridin-4-ylmethyl-piperazin-1-ylmethyl)-phenyl]-2,3-dihydro-benzofuran-7-sulfonylamino}-thiophene-2-carbonyl)-amino]-pentanoic acid] | 691 | 100 | 80
N=C(N)NCCC[C@H](NC(=O)c1sccc1NS(=O)(=O)c1cccc(NCc2csc(N3CCN(c4cccnc4)CC3)n2)c1)C(=O)O [Compound 62, (S)-5-guanidino-2-{[3-(3-{[2-(4-pyridin-3-yl-piperazin-1-yl)-thiazol-4-ylmethyl]-amino}-benzenesulfonylamino)-thiophene-2-carbonyl]-amino}-pentanoic acid] |  | 95 | 68
N=C(N)NCCC[C@H](NC(=O)c1sccc1NS(=O)(=O)c1cc(-c2cccc(CN3CCNCC3)c2)cc2c1OCC2)C(=O)O [Compound 33, (S)-5-Guanidino-2-({3-[5-(3-piperazin-1-ylmethyl-phenyl)-2,3-dihydro-benzofuran-7-sulfonylamino]-thiophene-2-carbonyl}-amino)-pentanoic acid] | 365 | 100 | 81
N=C(N)NCCC[C@H](NC(=O)c1sccc1NS(=O)(=O)c1cc(-c2cccc(CN3CCN(c4cccnc4)CC3)c2)cc2c1OCC2)C(=O)O [Compound 13, (S)-5-Guanidino-2-[(3-{5-[3-(4-pyridin-3-yl-piperazin-1-ylmethyl)-phenyl]-2,3-dihydro-benzofuran-7-sulfonylamino}-thiophene-2-carbonyl)-amino]-pentanoic acid] | 591 | 100 | 
N=C(N)NCCC[C@H](NC(=O)c1sccc1NS(=O)(=O)c1cc(-c2cccc(CNCc3cccnc3)c2)cc2c1OCC2)C(=O)O [Compound 12, (S)-5-Guanidino-2-({3-[5-(3-{[(pyridin-3-ylmethyl)-amino]-methyl}-phenyl)-2,3-dihydro-benzofuran-7-sulfonyl-amino]-thiophene-2-carbonyl}-amino)-pentanoic acid] | 1200 | 96 | 
N=C(N)NCCC[C@H](NC(=O)c1sccc1NS(=O)(=O)c1cc(-c2cccc(CN3CCC(N)CC3)c2)cc2c1OCC2)C(=O)O [Compound 34, (S)-2-[(3-{5-[3-(4-Amino-piperidin-1-ylmethyl)-phenyl]-2,3-dihydro-benzofuran-7-sulfonylamino}-thiophene-2-carbonyl)-amino]-5-guanidino-pentanoic acid] |  | 94 | 50
N=C(N)NCCC[C@H](NC(=O)c1sccc1NS(=O)(=O)c1cccc(NCc2csc(N3CCC(N4CCOCC4)CC3)n2)c1)C(=O)O [Compound 60, (S)-5-guanidino-2-{[3-(3-{[2-(4-morpholin-4-yl-piperidin-1-yl)-thiazol-4-ylmethyl]-amino}-benzenesulfonylamino)-thiophene-2-carbonyl]-amino}-pentanoic acid] | 319 | 96 | 70
N=C(N)NCCC[C@H](NC(=O)c1sccc1NS(=O)(=O)c1cc(-c2cccc(CNCCO)c2)cc2c1OCC2)C(=O)O [Compound 35, (S)-5-Guanidino-2-{[3-(5-{3-[(2-hydroxy-ethylamino)-methyl]-phenyl}-2,3-dihydro-benzofuran-7-sulfonylamino)-thiophene-2-carbonyl]-amino}-pentanoic acid] |  | 96 | 71
N=C(N)NCCC[C@H](NC(=O)c1sccc1NS(=O)(=O)c1cccc(NCc2csc(N3CCN(c4ccncc4)CC3)n2)c1)C(=O)O [Compound 57, (S)-5-guanidino-2-{[3-(3-{[2-(4-pyridin-4-yl-piperazin-1-yl)-thiazol-4-ylmethyl]-amino}-benzenesulfonylamino)-thiophene-2-carbonyl]-amino}-pentanoic acid] | 40 | 99 | 98
N=C(N)NCCC[C@H](NC(=O)c1sccc1NS(=O)(=O)c1cc(-c2ccccc2CN2CCC(CC(=O)O)CC2)cc2c1OCC2)C(=O)O [Compound 2, (S)-2-[(3-{5-[2-(4-Carboxymethyl-piperidin-1-ylmethyl)-phenyl]-2,3-dihydro-benzofuran-7-sulfonylamino}-thiophene-2-carbonyl)-amino]-5-guanidino-pentanoic acid] |  |  | 96
N=C(N)NCCC[C@H](NC(=O)c1sccc1NS(=O)(=O)c1cccc(NCc2csc(N3CCN(Cc4cccnc4)CC3)n2)c1)C(=O)O [Compound 59, (S)-5-guanidino-2-{[3-(3-{[2-(4-pyridin-3-ylmethyl-piperazin-1-yl)-thiazol-4-ylmethyl]-amino}-benzenesulfonylamino)-thiophene-2-carbonyl]-amino}-pentanoic acid] |  | 94 | 58
N=C(N)NCCC[C@H](NC(=O)c1sccc1NS(=O)(=O)c1cccc(NCc2csc(N3CCOCC3)n2)c1)C(=O)O [Compound 71, (S)-5-guanidino-2-[(3-{3-[(2-morpholin-4-yl-thiazol-4-ylmethyl)-amino]-benzenesulfonylamino}-thiophene-2-carbonyl]-amino]-pentanoic acid] |  | 91 | 53
N=C(N)NCCC[C@H](NC(=O)c1sccc1NS(=O)(=O)c1cc(-c2cccc(CNCc3cc[nH]n3)c2)cc2c1OCC2)C(=O)O [Compound 52, (S)-5-Guanidino-2-({3-[5-(3-{[(1H-pyrazol-3-ylmethyl)-amino]-methyl}-phenyl)-2,3-dihydro-benzofuran-7-sulfonylamino]-thiophene-2-carbonyl}-amino)-pentanoic acid] |  |  | 77
COC(=O)C1CCN(Cc2cccc(-c3cc4c(c(S(=O)(=O)Nc5ccsc5C(=O)N[C@@H](CCCNC(=N)N)C(=O)O)c3)OCC4)c2)CC1 [Compound 7, 1-(3-{7-[2-((S)-1-Carboxy-4-guanidino-butylcarbamoyl)-thiophen-3-ylsulfamoyl]-2,3-dihydro-benzofuran-5-yl}-benzyl)-piperidine-4-carboxylic acid methyl ester] | 5 |  | 94
N=C(N)NCCC[C@H](NC(=O)c1sccc1NS(=O)(=O)c1cc(-c2cccc(CN3CCN(c4ccccn4)CC3)c2)cc2c1OCC2)C(=O)O [Compound 27, (S)-5-Guanidino-2-[(3-{5-[3-(4-pyridin-2-yl-piperazin-1-ylmethyl)-phenyl]-2,3-dihydro-benzofuran-7-sulfonylamino}-thiophene-2-carbonyl)-amino]-pentanoic acid] | 625 | 97 | 88
Cc1cc(CNCc2ccccc2-c2cc3c(c(S(=O)(=O)Nc4ccsc4C(=O)N[C@@H](CCCNC(=N)N)C(=O)O)c2)OCC3)no1 [Compound 26, (S)-5-Guanidino-2-({3-[5-(2-{[(5-methyl-isoxazol-3-ylmethyl)-amino]-methyl}-phenyl)-2,3-dihydro-benzofuran-7-sulfonylamino]-thiophene-2-carbonyl}-amino)-pentanoic acid] |  | 100 | 55
N=C(N)NCCC[C@H](NC(=O)c1sccc1NS(=O)(=O)c1cc(-c2cccc(CNCc3ncc[nH]3)c2)cc2c1OCC2)C(=O)O [Compound 37] | 637 | 90 | 68
